From PubChem BioAssay (NCI)
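Test compounds were applied to cells in 96-well plates for 48 hours at 5 doses. GI50 = concentration required for 50% inhibition of growth. The concentration for full growth arrest is given as TGI.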

Tests used:
Assay in all cases: NCI-60 cell line screen, 48 h
[1] = test system: SK-MEL-28 melanoma
[2] = test system: OVCAR-5 ovarian
[3] = test system: SR leukemia
[4] = test system: HCT-116 colon
[5] = test system: MDA-MB-231 breast
[6] = test system: BT-549 breast
[7] = test system: U251 CNS
[8] = test system: NCI-H522 lung
[9] = test system: SNB-75 CNS
[10] = test system: PC-3 prostate

Row | SMILES | TGI [1] [µM] | TGI [2] [µM] | TGI [3] [µM] | TGI [4] [µM] | TGI [5] [µM] | TGI [6] [µM] | TGI [7] [µM] | TGI [8] [µM] | TGI [9] [µM] | TGI [10] [µM] | GI50 [1] [nM] | GI50 [2] [nM] | GI50 [5] [nM] | GI50 [9] [nM] | GI50 [10] [nM]
1 | CC(C)Nc1[nH]c(C(=O)c2ccccc2)c(N)c1C(=S)Nc1ccccc1 | 35.1 | > 100 | > 100 | > 100 | > 100 | > 100 | > 100 | > 100 | > 100 | > 100 | – | – | – | – | –
2 | ClC(Cl)(Cl)C1CCOC1n1nc2ccccc2n1 (stereo not given) | – | > 100 | > 100 | > 100 | > 100 | > 100 | > 100 | > 100 | > 100 | > 100 | – | – | – | – | –
3 | N#Cc1ncn(-c2ccccc2)c1N | > 100 | > 100 | > 100 | > 100 | > 100 | > 100 | > 100 | > 100 | > 100 | > 100 | – | – | – | – | –
4 | COc1cc2cc(Oc3ccc(NC(=O)Nc4ccc(F)c(C(F)(F)F)c4)cc3)c(C)nc2cc1OCCN1CCCCC1 | 3.04 | 3.1 | – | – | 3.19 | – | – | – | 2.6 | 3.05 | 1650 | 1720 | 1670 | 1330 | 1450
5 | CSc1c(C(=O)Nc2ccc(C)cc2)c(N)nn1-c1ccccc1 | > 100 | > 100 | > 100 | > 100 | > 100 | > 100 | > 100 | > 100 | – | > 100 | – | – | – | – | –
6 | N#C/C(=C1\N=C(c2ccccc2O)Oc2ccccc21)c1ccc([N+](=O)[O-])cc1 | > 100 | > 100 | – | > 100 | > 100 | > 100 | > 100 | – | > 100 | > 100 | – | – | – | – | –
7 | COc1ncnc2c1cnn2Cc1cn(COCC(O)CO)nn1 (stereo not given) | > 100 | > 100 | > 100 | > 100 | > 100 | > 100 | > 100 | 26.2 | – | > 100 | – | – | – | – | –
8 | CCOC(=O)c1ncoc1[C@H]1COC(C)(C)O1 | – | > 100 | > 100 | > 100 | – | – | > 100 | > 100 | > 100 | – | – | – | – | – | –
9 | O=C1Nc2cccc3ncn(c23)C2=C1CCCC2 | > 100 | > 100 | > 100 | > 100 | – | – | > 100 | > 100 | – | – | – | – | – | – | –
10 | Cc1nc2c(o1)C(=O)c1ccccc1C2=NC1CCCCC1N (stereo not given) | 0.313 | 3.24 | – | 0.729 | 2.75 | 1.29 | 1.32 | 2.33 | 0.564 | 3.46 | – | – | – | – | –
11 | S=C(NNC1=NCCCN1)Nc1ccccc1 | > 100 | > 100 | > 100 | > 100 | – | > 100 | > 100 | > 100 | > 100 | > 100 | – | – | – | – | –
12 | CC1=C2C(=O)O[C@@H](c3ccoc3)[C@]2(C)CCC1=O | > 100 | > 100 | > 100 | > 100 | > 100 | > 100 | > 100 | – | > 100 | > 100 | – | – | – | – | –
13 | O=C1C=C(N2CCCC2)C=C(N2CCCC2)C1 | > 100 | > 100 | > 100 | > 100 | – | – | > 100 | > 100 | > 100 | – | – | – | – | – | –
14 | CNNC1=NS(=O)(=O)c2cc(C)c(Cl)cc2S1 | > 10 | > 10 | – | > 10 | > 10 | > 10 | > 10 | > 10 | > 10 | > 10 | – | – | – | – | –
15 | CCOc1ccc2ccccc2c1NC1=NCCO1 | > 100 | > 100 | > 100 | > 100 | > 100 | – | > 100 | – | > 100 | – | – | – | – | – | –
16 | O=C(O)C(CS)NCc1c2ccccc2[n+]([O-])c2ccccc12 (stereo not given) | > 100 | > 100 | – | 62.4 | – | – | > 100 | > 100 | > 100 | – | – | – | – | – | –
17 | Cc1c2c(c(C)n1-c1ccccc1)C(=O)N(CCSC(=N)N)C2=O | > 100 | > 100 | – | > 100 | > 100 | > 100 | > 100 | > 100 | > 100 | > 100 | – | – | – | – | –
18 | CCN(CC)CCNC(=O)c1ccc([N+](=O)[O-])cc1OC | > 100 | > 100 | > 100 | > 100 | – | – | > 100 | > 100 | > 100 | – | – | – | – | – | –
19 | O=[N+]([O-])c1cccc(N=C2c3ccccc3CN2c2cccc([N+](=O)[O-])c2)c1 | > 100 | > 100 | – | > 100 | > 100 | > 100 | > 100 | > 100 | 73.5 | > 100 | – | – | – | – | –
20 | CSC(SC)=C1C(=O)NN=C1C | > 100 | > 100 | > 100 | > 100 | > 100 | > 100 | > 100 | > 100 | – | > 100 | – | – | – | – | –
21 | CC(CC(=O)CO[C@H]1[C@H](O)[C@@H](O)[C@@H](O)[C@@H]2NC(=O)c3c(cc4c(c3O)OCO4)[C@H]21)OC1OC(CO)C(O)C(O)C1O (stereo not given in full) | 14.3 | 5.7 | 2.22 | 1.67 | 1.89 | 3.76 | – | 1.23 | 0.884 | 1.48 | – | – | – | – | –
22 | CCCCCCCCCCCCCCCC(=O)ON1C(=S)NC(C)(c2ccccc2)C1=S (stereo not given) | – | > 100 | – | > 100 | > 100 | > 100 | – | – | > 100 | > 100 | – | – | – | – | –
23 | CC(=O)OC1/C(=C/c2ccc([N+](=O)[O-])cc2)C[C@H]2[C@@H]3CC=C4C[C@@H](OC(C)=O)CC[C@]4(C)[C@H]3CC[C@]12C (stereo not given in full) | > 100 | > 100 | > 20.7 | > 100 | > 100 | > 100 | > 100 | > 100 | – | > 100 | – | – | – | – | –
24 | CCOC(=O)C1(Cc2ccccc2)Cc2cc3c(cc2C1)CCC3 | > 100 | 66.3 | 65.1 | > 100 | > 100 | 95.3 | > 100 | 96.2 | – | > 100 | – | – | – | – | –
